Results as given in the COVID Moonshot data (paper PMC7615835).
Values joined by “and” are separate entries in the source; they are usually repeats but may differ in a detail not shown here. Equal values may be shown once.

molecular target: SARS-CoV-2 Main Protease (SARS-CoV-2) (UniProt P0DTD1)

Row | SMILES | IC50
1 | COC(=O)[C@H]1CC[C@@H](CNC(C(=O)Nc2cncc3ccccc23)c2cccc(Cl)c2)O1 (stereo in doubt) | 1.72 µM
2 | O=C(Cc1cc(Cl)cc(Nc2cc(C(F)(F)F)ccc2N2CCCC2)c1)Nc1cncc2ccccc12 | 3.51 µM
3 | O=C(Cc1cccc(Cl)c1)NC1C(=O)NCc2ccccc21 (stereo not given) | > 99.5 µM
4 | CC(NC(=O)CCl)c1cc(F)cc(Cl)c1 (stereo not given) | 27.9 µM
5 | O=C(Nc1cncc2ccncc12)[C@@H]1CCOc2cc(F)c(Cl)cc21 (stereo in doubt) | 0.397 µM and 0.849 µM
6 | C=CC(=O)N1CCN(S(=O)(=O)c2cccc(F)c2)CC1 | > 99.5 µM
7 | O=C(NCCc1cccc(F)c1)C(c1cccnc1)N(C(=O)c1cnc[nH]1)c1ccc(C2COC2)cc1 (stereo not given) | 22.7 µM
8 | O=C(NCCc1cccc(F)c1)C(c1cccnc1)N(C(=O)c1cocn1)C1CCCCC1 (stereo not given) | > 99.5 µM
9 | Cc1ccncc1NC(=O)Cc1cc(Cl)cc(C2COC2)c1 | 19.1 µM
10 | O=C(CCl)N1CC2CC1CN2Cc1cccc(Cl)c1 (stereo not given) | 2.17 µM
11 | O=C(Cc1cc(Cl)cc(Nc2ccc3scnc3c2)c1)Nc1cncc2ccccc12 | 2.22 µM
12 | CC(C)(C)c1ccc(N(C(=O)c2cc(=O)[nH][nH]2)C(C(=O)NCCc2cccc(F)c2)c2cccnc2)cc1 (stereo not given) | 39.7 µM
13 | Cc1nc(N2CCN(S(=O)(=O)c3ccccc3)CC2)sc1S(N)(=O)=O | > 99.5 µM
14 | O=C(Cc1cccc(Cl)c1)Nc1cncc2c1CCC2 | 5.16 µM
15 | CC(C)(C)c1ccc(N(C(=O)c2cocn2)C(C(=O)NCCc2cccc(F)c2)c2cnc(N3CCOCC3)nc2)cc1 (stereo not given) | > 99.5 µM
16 | O=C(c1cc(=O)[nH]c2ccccc12)N1CCN(c2cccc(Cl)c2)C(=O)C1 | 15.8 µM
17 | Cc1ccc(CC(=O)Nc2cncc3ccccc23)cc1 | 58.4 µM
18 | CN(C)c1ccc(C(Cc2ccsc2)C(=O)Nc2nnc3ccccn23)cc1 (stereo not given) | > 99.5 µM
19 | O=C(NCCCc1nc(=O)[nH][nH]1)C1(c2ccc(F)cc2F)CCC1 | > 99.5 µM
20 | CC(C)(C)c1ccc(N(C(=O)c2ocnc2C(F)(F)F)C(C(=O)NCCc2cccc(F)c2)c2cccnc2)cc1 (stereo not given) | > 99.5 µM
21 | COc1cncc(C(C(=O)NCCc2cccc(F)c2)N(C(=O)c2ccco2)c2ccc(C(C)(C)C)cc2)c1C (stereo not given) | > 99.5 µM
22 | CCCCN1C(=O)C(=O)c2cc(Br)cc(C)c21 | > 99.5 µM
23 | COc1ccccc1OCCNC(=O)c1cc(N)cc2ccccc12 | > 99.5 µM
24 | Cc1nc2cc(C(=O)NNc3nc4ccncc4s3)ccc2o1 | > 99.5 µM
25 | Cc1ccc(C(Cc2ccccc2)C(=O)Nc2nnn3ccccc23)cc1 (stereo not given) | > 99.5 µM

Row | SMILES | IC50
26 | Nc1nn(C(=O)C2CCOc3ccc(Cl)cc32)c2ccncc12 (stereo not given) | 87.2 µM
27 | C[n+]1ccn(CCCc2cccc(Cl)c2)c1C#N | > 99.5 µM
28 | CC(CCc1ccco1)NC(=O)Nc1cn(C)c(=O)c2ccccc12 (stereo not given) | 44.5 µM
29 | O=C(Nc1cncc2ccccc12)C12CC(C1)Oc1ccc(Cl)cc12 | 56.4 µM
30 | CNC(=O)CN1Cc2ccc(Cl)cc2C(C(=O)Nc2cncc3cc(COC)ccc23)C1 (stereo not given) | 0.119 µM
31 | CCS(=O)(=O)N1Cc2ccc(Cl)cc2C(C(=O)Nc2cncc3ccccc23)C1 (stereo not given) | 0.242 µM
32 | O=C(Cc1cc(Cl)cc(Nc2ccc3c(c2)OC(F)(F)O3)c1)Nc1cncc2ccccc12 | 2.07 µM
33 | NCc1cn(CC(=O)N(Cc2ccsc2)c2ccc(-c3ccccc3)cc2)nn1 | > 99.5 µM
34 | CC1(NC(=O)CN2Cc3ccc(Cl)cc3C3(CCN(c4cncc5ccccc45)C3=O)C2)CC1 (stereo not given) | 0.271 µM
35 | Cc1ccncc1NC(=O)CC(C)C(C)C (stereo not given) | > 99 µM
36 | C=CC(=O)N(c1ccc(C(C)(C)C)cc1)C(C(=O)NCCc1cccc(F)c1)c1cccnc1 (stereo not given) | 2.96 µM
37 | Cc1c(Br)cccc1Nc1cc(Cl)cc(CC(=O)Nc2cncc3ccccc23)c1 | 2.13 µM
38 | O=C(Cc1cccc(Cl)c1)Nc1cnccc1C(F)(F)F | 18.2 µM and > 9.95 µM
39 | CC(C)c1cc(N(C(=O)c2ccco2)C(C(=O)NCCc2cccc(F)c2)c2cccnc2)ccc1C(F)(F)F (stereo not given) | > 99.5 µM
40 | CC(C)(C)c1ccc(N(C(=O)c2cnc[nH]2)C(C(=O)NCCc2cccc(F)c2)c2cccnc2)cc1 (stereo not given) | 0.292 µM
41 | CC(C)(c1ccc(N(C(=O)c2cocn2)C(C(=O)NCCc2cccc(F)c2)c2cccnc2)cc1)S(C)(=O)=O (stereo not given) | 67.8 µM
42 | CC(C)(C)c1csc(Nc2cc(Cl)cc(CC(=O)Nc3cncc4ccccc34)c2)n1 | 2.09 µM
43 | O=C(Cc1cccc(Cl)c1)Nc1cncn1-c1ccccc1 | > 99.5 µM
44 | O=C(Cc1cc(Cl)cc(Nc2ccc(Br)nc2)c1)Nc1cncc2ccccc12 | 1.94 µM
45 | O=C(Nc1cccc(F)c1)[C@@H](c1ccccc1)N1Cc2ccccc2C1=O (stereo in doubt) | > 99.5 µM
46 | C[C@@]1(C(=O)Nc2cncc3c2CCCC3)CNS(=O)(=O)c2ccc(Cl)cc21 (stereo in doubt) | 3.72 µM
47 | Cc1cc(N2CCC(C)N(Cc3ccccc3)CC2)n2ncnc2n1 (stereo not given) | > 99.5 µM
48 | CCN(C(=O)c1ccco1)C(C(=O)NCCc1cccc(F)c1)c1cccnc1 (stereo not given) | > 99.5 µM
49 | O=C(CN1CC(C(=O)Nc2cncc3cc(F)ccc23)c2cc(Cl)ccc2C1=O)NC1COC1 (stereo not given) | 1.01 µM
50 | Cc1ccc2cccc(Nc3cc(Cl)cc(CC(=O)Nc4cncc5ccccc45)c3)c2n1 | 4.93 µM

Row | SMILES | IC50
51 | Cc1ccc2nnc(CNc3ccc4nnc(C(F)(F)F)n4n3)n2c1 | > 99.5 µM
52 | Cn1cc(CN2Cc3ccc(Cl)cc3C(C(=O)Nc3cncc4ccc(F)cc34)C2)nn1 (stereo not given) | 0.914 µM
53 | COc1ccccc1CC(=O)Nc1cncc2ccccc12 | 35 µM
54 | O=C(NCCc1cccc(F)c1)C(c1cccnc1)N(C(=O)c1cnc[nH]1)c1ccc(Cl)cc1 (stereo not given) | > 99.5 µM
55 | CCN(Cc1ccc(F)cc1)c1cc(Cl)cc(CC(=O)Nc2cncc3ccccc23)c1 | > 99.5 µM
56 | CN(C(=O)c1ccco1)C(C(=O)NCCc1cccc(F)c1)c1cccnc1 (stereo not given) | > 99.5 µM
57 | O=C(NCCc1cccc(F)c1)C(c1cccnc1)N(C(=O)c1cocn1)C1COc2cc(F)ccc21 (stereo not given) | > 99.5 µM
58 | CS(=O)(=O)c1ccc2c(NC(=O)C3CN(CC(=O)NC4COC4)C(=O)c4ccc(Cl)cc43)cncc2c1 (stereo not given) | 0.866 µM
59 | CC(NC(=O)c1c(Cl)nc2ccccn12)c1nnc2ccccn12 (stereo not given) | > 99.5 µM
60 | O=C(Cc1cc(Cl)cc(Nc2ncc(C(F)(F)F)cc2Cl)c1)Nc1cncc2ccccc12 | 1.7 µM
61 | O=C(Nc1cncc2ccccc12)C1CN(S(=O)(=O)[C@@H]2CCC[C@H]2O)Cc2ccc(Cl)cc21 (stereo in doubt) | 0.129 µM and 0.146 µM
62 | Cc1ccncc1NC(=O)Cc1cc(Cl)cc(CNS(C)(=O)=O)c1 | 16.6 µM
63 | O=C(Cn1nnc2ccccc21)N(Cc1ccccn1)c1cnc(-c2ccccc2)nc1 | > 99.5 µM
64 | Cc1ccc(-n2ncc3c(=O)n(CC(N)=O)cnc32)cc1C | > 99.5 µM
65 | O=C(Nc1cncc2ccccc12)C1CCOc2c(O)cc(Cl)cc21 (stereo not given) | 0.579 µM
66 | O=C(Cc1cc(Cl)cc(Nc2ccc(Cl)nc2Cl)c1)Nc1cncc2ccccc12 | 2.31 µM
67 | O=C(Cn1ccc(=O)[nH]c1=O)N1CCN(c2ccccc2O)CC1 | > 99.5 µM
68 | O=C(Cc1cc(Cl)cc(OC2CC(=O)N2)c1)Nc1cncc2ccccc12 (stereo not given) | 0.274 µM and 0.15 µM
69 | C=CC(=O)N(Cc1ccccc1Cl)C(C(=O)NC)c1cncc2ccccc12 (stereo not given) | > 99.5 µM
70 | O=C(CN(C(=O)Cn1nnc2ccccc21)c1ccc(-c2ccccc2)cc1)N1CCNCC1 | > 99.5 µM
71 | Cc1c(Cl)cccc1S(=O)(=O)N(Cc1ccc(F)cc1)c1ccc2[nH]c(=O)[nH]c2c1 | > 99.5 µM
72 | N#Cc1nccn1CCc1cccc(Cl)c1 | > 99.5 µM
73 | N#CC1(CS(=O)(=O)N2Cc3ccc(Cl)cc3[C@H](C(=O)Nc3cncc4ccccc34)C2)CCS(=O)(=O)CC1 (stereo in doubt) | < 0.05 µM and 0.0814 µM and 0.0524 µM
74 | O=C(NCCc1cccc(F)c1)C(c1cccnc1)N(C(=O)c1ccco1)c1ccc(-c2n[nH]c3c2COCC3)cc1 (stereo not given) | 43 µM
75 | CC(C)(C)c1ccc(N(C(=O)c2cocn2)C(C(=O)NCCN2CCOCC2)c2cccnc2)cc1 (stereo not given) | 82.5 µM

Row | SMILES | IC50
76 | NC(=O)CN1CCCN(C(=O)CCSc2ccc(F)cc2)CC1 | > 99.5 µM
77 | Cn1ncc(S(=O)(=O)N2Cc3ccc(Cl)cc3C(C(=O)Nc3cncc4ccccc34)C2)n1 (stereo not given) | 0.268 µM
78 | O=C(Nc1[nH]nc2cccc(F)c12)C1CCOc2ccc(Cl)cc21 (stereo not given) | > 99.5 µM
79 | O=C(Cc1cc(Cl)cc(Nc2ncc(Br)nc2Cl)c1)Nc1cncc2ccccc12 | 1.71 µM
80 | O=C(CCl)N1CCN(S(=O)(=O)c2cccc(F)c2)CC1 | 4.1 µM and 5.05 µM and 2.38 µM
81 | C#CCCCC(=O)N[C@H](C(=O)N[C@H](CC(C)C)C(=O)NN(CCC(N)=O)C(=O)/C=C/C(=O)OC)C(C)(C)C (stereo in doubt) | < 0.05 µM and 0.044 µM
82 | CN(C)S(=O)(=O)N1CCN(C(=O)C2Nc3ccccc3S(=O)(=O)N2)CC1 (stereo not given) | > 99.5 µM
83 | O=C(Nc1cncc2ccccc12)C1CN(CC2CC2)C(=O)c2ccc(Cl)cc21 (stereo not given) | 0.381 µM
84 | CCc1ccc(S(C)(=O)=O)cc1C(=O)N1CCC(C2CCNC2)CC1 (stereo not given) | > 99.5 µM
85 | O=S(=O)(Cc1ccccc1F)c1oc(-c2ccc(F)cc2)nc1S(=O)(=O)c1ccccc1 | 0.397 µM
86 | O=C(Nc1cncc2cc(Cl)ccc12)C12CC(C1)Oc1ccc(Cl)cc12 | > 99.5 µM
87 | Cc1cc(F)cc(Br)c1Nc1cc(Cl)cc(CC(=O)Nc2cncc3ccccc23)c1 | 2 µM
88 | CC(C)(C)c1ccc(N(C(=O)c2cocn2)C(C(=O)NC2CCOCC2)c2cccnc2)cc1 (stereo not given) | 3.9 µM
89 | CNC(=O)c1ccc2cncc(NC(=O)C3CN(S(=O)(=O)CC4(C#N)CC4)Cc4ccc(Cl)cc43)c2c1 (stereo not given) | 0.116 µM
90 | CN(C)C(=O)CN1CC(C(=O)Nc2cncc3ccccc23)c2cc(Cl)ccc2C1=O (stereo not given) | 0.734 µM
91 | CC(C)(C#N)CS(=O)(=O)N1Cc2ccc(Cl)cc2[C@H](C(=O)Nc2cncc3ccccc23)C1 (stereo in doubt) | 0.055 µM and 0.0969 µM and 0.141 µM
92 | CC(C)(C)c1ccc(N(C(=O)c2cc(=O)c3c(O)cccc3o2)C(C(=O)NCCc2cccc(F)c2)c2cccnc2)cc1 (stereo not given) | > 99.5 µM
93 | O=c1[nH]c(Cc2cccc(C(F)(F)F)c2)nc2cnccc12 | > 99.5 µM
94 | Cc1ccccc1NC(=O)CC1SC(=O)N(c2ccccc2)C1=O (stereo not given) | 0.443 µM
95 | Nc1nc2[nH]cnc2c(=O)n1-c1cc(Cl)cc(CC(=O)Nc2cncc3ccccc23)c1 | 1.86 µM
96 | CCCCc1nc(-c2nccn2Cc2ccoc2)c[nH]1 | 14.3 µM
97 | O=C1O[C@]2(CCOc3ccc(Cl)cc32)C(=O)N1c1cncc2ccccc12 (stereo in doubt) | 80.9 µM and > 9.95 µM
98 | COCCNC(=O)[C@@H](c1ccccc1)N1Cc2ccccc2C1=O (stereo in doubt) | > 99.5 µM
99 | CC(NC(=O)c1cc2n(n1)CCO2)(C(=O)Nc1cncc2ccccc12)c1ccc(Cl)c(Cl)c1 (stereo not given) | 6.89 µM and 10.5 µM
100 | C=CC(=O)N(c1ccc(C(F)(F)F)cc1)C(C(=O)NCCc1cccc(F)c1)c1cccnc1 (stereo not given) | 20.1 µM
